Data set [1] concerns RAW264.7. As to the kind of experiment: Antiinflammatory activity in mouse RAW264.7 cells assessed as inhibition of LPS induced iNOS-dependent nitric oxide production at 1.25 ug/ml after 24 hrs by Griess assay relative to control. The class given is functional. To be noted: RAW264.7, 24 h. Background: Griess reagent forms a coloured azo dye with nitrite.
Data set [2] in a line: Cytotoxicity against LPS-stimulated mouse RAW264.7 cells assessed as cell viability at 2.5 ug/ml after 24 hrs by MTT assay relative to control. To be noted: LPS-stimulated RAW264.7 cells, read-out: Activity. Type of data set: cell-based. (In general: Tetrazolium assays rely on reduction of a dye to a coloured formazan, in cell work by metabolically active cells.)
The nature of data set [3]: Cytotoxicity against LPS-stimulated mouse RAW264.7 cells assessed as cell viability at 10 ug/ml after 24 hrs by MTT assay relative to control. Type of data set: cell-based. To be noted: LPS-stimulated RAW264.7 cells, read-out: Activity.
Data set [4] relates to RAW264.7. As to the kind of experiment: Antiinflammatory activity in mouse RAW264.7 cells assessed as inhibition of LPS induced iNOS-dependent nitric oxide production at 10 ug/ml after 24 hrs by Griess assay relative to control. The class given is functional. To be noted: RAW264.7, 24 h.
In data set [5] the test system is RAW264.7. As to the kind of experiment: Antiinflammatory activity in mouse RAW264.7 cells assessed as inhibition of LPS induced iNOS-dependent nitric oxide production at 5 ug/ml after 24 hrs by Griess assay relative to control. To be noted: RAW264.7, 24 h. Type of data set: functional.
Data set [6] in a line: Cytotoxicity against LPS-stimulated mouse RAW264.7 cells assessed as cell viability at 5 ug/ml after 24 hrs by MTT assay relative to control. Type of data set: cell-based. To be noted: LPS-stimulated RAW264.7 cells, read-out: Activity.
Data set [7] deals with RAW264.7. As to the kind of experiment: Antiinflammatory activity in mouse RAW264.7 cells assessed as inhibition of LPS induced iNOS-dependent nitric oxide production at 2.5 ug/ml after 24 hrs by Griess assay relative to control. The class given is functional. To be noted: RAW264.7, 24 h.
A short description of data set [8]: Cytotoxicity against LPS-stimulated mouse RAW264.7 cells assessed as cell viability at 1.25 ug/ml after 24 hrs by MTT assay relative to control. Type of data set: cell-based. To be noted: LPS-stimulated RAW264.7 cells, read-out: Activity.
In data set [9] the test system is RAW264.7. As to the kind of experiment: Antiinflammatory activity in mouse RAW264.7 cells assessed as inhibition of LPS induced iNOS-dependent nitric oxide production after 24 hrs by Griess assay. Type of data set: functional, cell-based. To be noted: RAW264.7, 24 h.

≈ marks a conversion by molar mass, not a printed value. Bounds are passed on as bounds.

What is called inhibition is the relative decrease from the control value, in per cent. As a reminder, the IC50 is the concentration needed to halve the response being measured. Consider `COc1ccc(CCC(=O)c2cccc(O)c2)c(OC)c1`, for which the inhibition at 1.25 µg/mL with RAW264.7 [1] came to 7.9%. Besides, in [2], the viability at 24 h, 2.5 ug/ml is 88.5%. For the same compound, in data set [3], the viability at 24 h, 10 ug/ml is 74.8%. Also, in the data set on RAW264.7 [4], the inhibition at 10 µg/mL was 52.3%. The inhibition at 5 µg/mL in the data set with RAW264.7 [5] was found to be 25.4%. Further, the viability at 24 h, 5 ug/ml in [6] turned out to be 88.8%. Further, the inhibition at 2.5 µg/mL with RAW264.7 [7] came out at 17.1%. Further, the viability at 24 h, 1.25 ug/ml in [8] came to 92.1%. In the data set on RAW264.7 [9], the 50% inhibitory concentration (IC50) is 9.42 µg/mL (≈ 32.9 µM).
As for `COc1ccc(CCCc2ccc(OC)c(OC)c2)cc1OC`, the inhibition at 1.25 µg/mL with RAW264.7 [1] was determined as 8.4%. Besides, in [2], the viability at 24 h, 2.5 ug/ml is 97.4%. Besides, the viability at 24 h, 10 ug/ml in [3] worked out at 94.9%. In addition, in the data set with RAW264.7 [4], the inhibition at 10 µg/mL is 52%. In addition, in the data set on RAW264.7 [5], the inhibition at 5 µg/mL turned out to be 26.1%. Further, in data set [6], the viability at 24 h, 5 ug/ml was determined as 95.6%. Further, the inhibition at 2.5 µg/mL in the data set on RAW264.7 [7] turned out to be 12.7%. Besides, the viability at 24 h, 1.25 ug/ml in [8] stood at 99%. Besides, in the data set with RAW264.7 [9], the IC50 came out at 9.47 µg/mL (≈ 29.9 µM).
Consider `COc1cc(CCCc2ccc3c(c2)OCO3)ccc1O`, for which the inhibition at 1.25 µg/mL in the data set on RAW264.7 [1] was determined as 42.4%. The viability at 24 h, 2.5 ug/ml in [2] amounted to 96.2%. Moreover, the viability at 24 h, 10 ug/ml in data set [3] worked out at 58.2%. For the same compound, the inhibition at 10 µg/mL with RAW264.7 [4] amounted to 78.3%. Also, the inhibition at 5 µg/mL with RAW264.7 [5] turned out to be 52.7%. Moreover, in [6], the viability at 24 h, 5 ug/ml turned out to be 93.3%. Also, in the data set with RAW264.7 [7], the inhibition at 2.5 µg/mL turned out to be 46.8%. In addition, the viability at 24 h, 1.25 ug/ml in data set [8] came out at 98.5%. For the same compound, the IC50 with RAW264.7 [9] amounted to 3.64 µg/mL (≈ 12.7 µM).
For `COc1cc(C(=O)/C=C/c2cccc(OC)c2OC)ccc1O`, in the data set on RAW264.7 [1], the inhibition at 1.25 µg/mL came to 3.9%. Besides, in data set [2], the viability at 24 h, 2.5 ug/ml is 94%. In data set [3], the viability at 24 h, 10 ug/ml is 63.7%. Also, in the data set with RAW264.7 [4], the inhibition at 10 µg/mL is 46.2%. For the same compound, the inhibition at 5 µg/mL in the data set on RAW264.7 [5] came to 3.2%. Besides, the viability at 24 h, 5 ug/ml in [6] was determined as 67.8%. The inhibition at 2.5 µg/mL with RAW264.7 [7] was determined as 3.1%. For the same compound, in data set [8], the viability at 24 h, 1.25 ug/ml was found to be 97.5%. Besides, the concentration for half-maximal inhibition (IC50) in the data set with RAW264.7 [9] was more than 10 µg/mL.
Regarding `COc1ccc(CCCc2cc(OC)ccc2OC)c(O)c1`, the inhibition at 1.25 µg/mL with RAW264.7 [1] is 6.2%. The viability at 24 h, 2.5 ug/ml in data set [2] turned out to be 102%. Besides, in data set [3], the viability at 24 h, 10 ug/ml is 42.5%. The inhibition at 10 µg/mL in the data set on RAW264.7 [4] was 50.2%. Besides, the inhibition at 5 µg/mL with RAW264.7 [5] was 36.4%. Besides, the viability at 24 h, 5 ug/ml in data set [6] was 98.5%. Also, in the data set on RAW264.7 [7], the inhibition at 2.5 µg/mL is 31.7%. For the same compound, the viability at 24 h, 1.25 ug/ml in [8] was determined as 102%. Moreover, in the data set with RAW264.7 [9], the concentration for half-maximal inhibition (IC50) came to 9.9 µg/mL (≈ 32.7 µM).
As for `COc1ccc(CCCc2ccc(OC)cc2OC)c(O)c1`, the inhibition at 1.25 µg/mL with RAW264.7 [1] came out at 10.4%. Also, in data set [2], the viability at 24 h, 2.5 ug/ml was 97.7%. Also, the viability at 24 h, 10 ug/ml in [3] amounted to 25.8%. Moreover, the inhibition at 10 µg/mL in the data set on RAW264.7 [4] is 70%. Also, the inhibition at 5 µg/mL in the data set with RAW264.7 [5] was found to be 35.2%. Besides, the viability at 24 h, 5 ug/ml in [6] is 91.5%. Also, in the data set on RAW264.7 [7], the inhibition at 2.5 µg/mL came to 26.9%. Also, the viability at 24 h, 1.25 ug/ml in data set [8] was determined as 100%. Further, the concentration for half-maximal inhibition (IC50) in the data set with RAW264.7 [9] is 6.71 µg/mL (≈ 22.2 µM).
Turning to `COc1ccc(C(=O)CCc2cccc(OC)c2OC)c(O)c1`, the inhibition at 1.25 µg/mL with RAW264.7 [1] was 0.8%. Also, in [2], the viability at 24 h, 2.5 ug/ml worked out at 95.2%. In addition, the viability at 24 h, 10 ug/ml in [3] is 92.8%. Moreover, the inhibition at 10 µg/mL with RAW264.7 [4] amounted to 18.6%. Moreover, the inhibition at 5 µg/mL in the data set with RAW264.7 [5] amounted to 5.4%. Further, the viability at 24 h, 5 ug/ml in [6] was 92.7%. In addition, in the data set with RAW264.7 [7], the inhibition at 2.5 µg/mL amounted to 2.8%. Further, in [8], the viability at 24 h, 1.25 ug/ml was found to be 96.6%. Also, the IC50 in the data set with RAW264.7 [9] was more than 10 µg/mL.
Consider `COc1ccc(/C=C/C(=O)c2ccc(OC)c(OC)c2)cc1O`, for which the inhibition at 1.25 µg/mL in the data set on RAW264.7 [1] worked out at 1.1%. Moreover, in data set [2], the viability at 24 h, 2.5 ug/ml was found to be 82.1%. Further, the viability at 24 h, 10 ug/ml in data set [3] is 73.5%. In the data set with RAW264.7 [4], the inhibition at 10 µg/mL stood at 9.8%. For the same compound, in the data set on RAW264.7 [5], the inhibition at 5 µg/mL was 2.6%. Also, in [6], the viability at 24 h, 5 ug/ml turned out to be 73%. For the same compound, the inhibition at 2.5 µg/mL in the data set with RAW264.7 [7] amounted to 1.8%. Also, in data set [8], the viability at 24 h, 1.25 ug/ml was found to be 91.4%. In the data set on RAW264.7 [9], the IC50 is more than 10 µg/mL.
As for `COc1ccc(CCC(=O)c2ccc(OC)c(OC)c2)cc1O`, in the data set on RAW264.7 [1], the inhibition at 1.25 µg/mL turned out to be 2.9%. The viability at 24 h, 2.5 ug/ml in data set [2] amounted to 92.1%. In addition, the viability at 24 h, 10 ug/ml in [3] is 83.9%. In addition, the inhibition at 10 µg/mL in the data set with RAW264.7 [4] stood at 31%. Also, the inhibition at 5 µg/mL in the data set with RAW264.7 [5] came out at 17.3%. Besides, the viability at 24 h, 5 ug/ml in [6] was found to be 91.8%. For the same compound, the inhibition at 2.5 µg/mL with RAW264.7 [7] was found to be 6.3%. Also, in data set [8], the viability at 24 h, 1.25 ug/ml turned out to be 95.6%. The IC50 in the data set on RAW264.7 [9] was more than 10 µg/mL.
Regarding `COc1ccc(C(=O)CCc2cc(OC)ccc2OC)c(O)c1`, the inhibition at 1.25 µg/mL in the data set on RAW264.7 [1] was 6.6%. Moreover, the viability at 24 h, 2.5 ug/ml in [2] stood at 96.2%. Further, the viability at 24 h, 10 ug/ml in data set [3] is 92.4%. Also, the inhibition at 10 µg/mL with RAW264.7 [4] is 14%. For the same compound, in the data set on RAW264.7 [5], the inhibition at 5 µg/mL was determined as 11.9%. The viability at 24 h, 5 ug/ml in data set [6] is 91.1%. The inhibition at 2.5 µg/mL with RAW264.7 [7] stood at 8.2%. The viability at 24 h, 1.25 ug/ml in [8] was determined as 96.4%. Further, the 50% inhibitory concentration (IC50) in the data set with RAW264.7 [9] was more than 10 µg/mL.
